From patent US20220324835A1 (Nurix Therapeutics, Inc., priority 2018, published 2022)

Experiments:
Format in all cases: cell-based, human
T-cell [1] = test: CD25 cell surface staining on T-cells stimulated with anti-CD3 antibody alone (Biological Example 2); conditions: T-cell, fold change over baseline, primary human total T-cells, read-out: CD25 staining Anti-CD3 stimulation; for fold induction at 1 µM: 1 μM Cbl-b inhibitor; for fold induction at 8 µM: 8 μM Cbl-b inhibitor
T-cell [2] = test: IL-2 secretion from T-cells co-stimulated with anti-CD3 and anti-CD28 antibody (Biological Example 2); conditions: Homo sapiens, T-cell, fold change over baseline, primary human total T-cells, read-out: IL-2 secretion Anti-CD3/Anti-CD28 stimulation; for fold induction at 0.3 µM: 0.3 μM Cbl-b inhibitor; for fold induction at 1 µM: 1 μM Cbl-b inhibitor; for fold induction at 4 µM: 4 μM Cbl-b inhibitor
How it was run: (§1)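 Values are fold-change over baseline: readings (IL-2 release, CD25 staining) from inhibitor-treated T-cells divided against untreated cells […]. No detailed procedure stated.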

T-cell [3] = test: CD25 cell surface staining on T-cells co-stimulated with anti-CD3 and anti-CD28 antibody (Biological Example 2); conditions: Homo sapiens, T-cell, fold change over baseline, primary human total T-cells, read-out: CD25 staining Anti-CD3/Anti-CD28 stimulation; for fold induction at 0.3 µM: 0.3 μM Cbl-b inhibitor; for fold induction at 1 µM: 1 μM Cbl-b inhibitor; for fold induction at 4 µM: 4 μM Cbl-b inhibitor
How it was run: as §1

Structure (SMILES)	fold induction at 1 µM (T-cell [1])	fold induction at 8 µM (T-cell [1])	fold induction at 0.3 µM (T-cell [2])	fold induction at 1 µM (T-cell [2])	fold induction at 4 µM (T-cell [2])	fold induction at 0.3 µM (T-cell [3])	fold induction at 1 µM (T-cell [3])	fold induction at 4 µM (T-cell [3])
C[C@H](Cc1nncn1C)c1cccc(N2Cc3c(ccnc3C3CCC3)C2=O)c1 [Compound 258, (R)-4-cyclobutyl-2-(3-(1-(4-methyl-4H-1,2,4-triazol-3-yl)propan-2-yl)phenyl)-2,3-dihydropyrrolo[3,4-c]pyridin-1-one]	> 1	> 1	1.01 to 2.5	2.51 to 5	5 to 7.5	< 1	1.01 to 1.3	1.01 to 1.3
C[C@H](Cc1nnc[nH]1)c1cccc(N2Cc3c(cccc3C(F)(F)F)C2=O)c1 [Compound 262, (R)-2-(3-(1-(4H-1,2,4-triazol-3-yl)propan-2-yl)phenyl)-4-(trifluoromethyl)isoindolin-1-one]	< 0.6	< 0.6	< 1	< 1	1.01 to 2.5	1.01 to 1.3	1.31 to 1.5	1.31 to 1.5
C[C@H](Cc1nncn1C1CC1)c1cccc(N2Cc3c(cccc3C(F)(F)F)C2=O)c1 [Compound 265, (R)-2-(3-(1-(4-cyclopropyl-4H-1,2,4-triazol-3-yl)propan-2-yl)phenyl)-4-(trifluoromethyl)isoindolin-1-one]	0.601 to 0.8	0.801 to 1	< 1	1.01 to 2.5	1.01 to 2.5	1.01 to 1.3	1.01 to 1.3	1.01 to 1.3
Cc1[nH]cnc1CC(C)c1cccc(N2Cc3c(cccc3C(F)(F)F)C2=O)c1 (centres unmarked) [Compound 272, 2-[3-[1-(5-methyl-1H-imidazol-4-yl)propan-2-yl]phenyl]-4-(trifluoromethyl)isoindolin-1-one]	< 0.6	< 0.6	< 1	< 1	< 1	< 1	< 1	1.01 to 1.3
C[C@H](Cc1nncn1C)c1cc(F)cc(N2Cc3c(cccc3C(F)(F)F)C2=O)c1 [Compound 281a, 2-[3-Fluoro-5-[(1R)-1-methyl-2-(4-methyl-1,2,4-triazol-3-yl)ethyl]phenyl]-4-(trifluoromethyl)isoindolin-1-one]	0.801 to 1	> 1	1.01 to 2.5	1.01 to 2.5	2.51 to 5	1.01 to 1.3	1.01 to 1.3	1.31 to 1.5
Cn1cnnc1[C@@H]1CC[C@@H]1c1cccc(N2Cc3c(cccc3C(F)(F)F)C2=O)c1 [Compound 283b, 2-(3-((1S,2R)-2-(4-methyl-4H-1,2,4-triazol-3-yl)cyclobutyl)phenyl)-4-(trifluoromethyl)isoindolin-1-one]	0.601 to 0.8	0.801 to 1	5 to 7.5	> 7.5	> 7.5	1.01 to 1.3	1.01 to 1.3	1.01 to 1.3
Cc1ccc(C(=O)Nc2cccc(C(C)C(F)(F)c3nncn3C)c2)nc1C1CC1 (centres unmarked) [Compound 286, 6-cyclopropyl-N-(3-(1,1-difluoro-1-(4-methyl-4H-1,2,4-triazol-3-yl)propan-2-yl)phenyl)-5-methylpicolinamide]	0.801 to 1	> 1	1.01 to 2.5	1.01 to 2.5	2.51 to 5	< 1	< 1	1.01 to 1.3
